# Reference: article PMC6159992, “Selective disruption of TLR2-MyD88 interaction inhibits inflammation and attenuates Alzheimer’s pathology” (The Journal of Clinical Investigation, 2018)
# B1: mutated TIDM peptide (peptide)
# peptide: DRQIKIWFQNRRMKWKKPGWHQD
# notes: Drosophila; MyD88, mouse, residues 245-250 of the CD loop with two underlined mutations (A to W, K to D); positions 247 and 250 counted from the printed limits 245 and 250; also called mTIDM
# Assays:
# [1] = test system: 5XFAD-Tg mice; assay: Gross motor activity of 5XFAD-Tg mice; assay type: in vivo, mouse; conditions: 0.1 mg/kg BW/2 d intranasal, 30 days, n=8
# From the text: The ultimate objective of neuroprotection in AD is to improve and/or protect memory. Major functions of the hippocampus are to generate and organize long-term memory and spatial learning. Therefore, we examined whether WT TIDM peptide protected memory and learning in Tg mice. As expected, Tg mice took much longer to find the food reward hole and had greater latency (P < 0.001 [= 0.0000213]) with higher errors (P < 0.001 [= 0.0000251]) in the Barnes maze as compared with non-Tg mice. […] Likewise, on the T-maze test, untreated Tg mice also had fewer positive turns (P < 0.001 [= 0.0000440]) and a higher number of negative turns (P < 0.001 [= 0.000223]) than did age-matched non-Tg mice (Figure 6, L and M). […] We also monitored the short-term memory of Tg mice using the novel object recognition (NOR) test. […]
# treatment, hippocampal extracts of all groups of mice (n=4 per group) were analyzed for protein levels of Aβ by Western blot using 82E1 mAb. […] Results were analyzed by […]
# Figure S14. […] After 30d of treatment, ELISA quantification of Aβ1-40 (A, C & E) and Aβ1-42 (B, D & F) was performed in serum (A & B) and TBS (C & D) and (TBS+Triton X-100) (E & F) extracted hippocampal tissues. […]
# Figure S15. […] After 30d of treatment, hippocampal extracts of all groups of mice (n=4 per group) were analyzed for phospho-tau and total tau by Western blot. […] Results were analyzed by two-sample t-tests. […]
# [2] = Hippocampal level of WT TIDM after intranasal administration (ESI-MS); assay type: in vivo; conditions: male, B6SJL-Tg(APPSwFlLon,PSEN1*M146L*L286V)6799Vas/J (5XFAD), mouse, hippocampus (brain tissue), inhaled or intranasal, Tg mice, 1 intranasal dose 0.1 mg/kg BW, 60 minutes after administration, read-out: level of WT TIDM peptide in hippocampus
# Protocol: It is becoming clear that glial inflammation plays an important role in the loss of neurons in AD and other neurodegenerative disorders ([7], [9], [22]–[24]). […] We first determined whether the WT TIDM peptide could enter into the hippocampus. Tg mice were treated with TIDM peptides intranasally, and after 60 minutes of administration, we detected WT TIDM peptide in the hippocampus of Tg mice by electrospray ionization–coupled mass spectrometry (ESI-MS) (Figure 5, A and C). […] The level of WT TIDM peptide was 23.33 ± 14.14 ng/g brain tissue in the hippocampus of WT TIDM–treated Tg mice compared with nil in the saline-treated Tg mice. By infrared scanning, we also detected TIDM peptide in hippocampus after intranasal treatment (Supplemental Figure 10). […]
# Tg mice (6 months of age) received 1 intranasal dose of WT TIDM peptide (0.1 mg/kg BW). After 60 minutes of treatment, mice were perfused with sterile saline, and hippocampi were homogenized and supernatant analyzed for WT TIDM by ESI-MS (A, WT TIDM standard; B, untreated 5XFAD-Tg; C, WT TIDM–treated 5XFAD-Tg). […] Cells positive for Iba-1 (E, CA1; F, CA3), p-p65 (G, CA1; H, CA3), and iNOS (I, CA1; J, CA3) were counted in 2 sections (2 images/slide) from each of 6 different mice (n = 6) per group. ^†P < 0.001 versus non-Tg; ^††P < 0.001 versus Tg; 2-sample t test. […]
# [3] = target: T1, cMyc-tagged C-terminal TIR domain of TLR2 protein (cTLR2), purified recombinant protein (mouse, UniProt Q9QUN7 640-784); assay: SPR; cTLR2 (0.8 mg/ml, PBS) immobilised on a 500-kDa carboxymethyl dextran gold sensor slide (Reichert 4SPR); WT TIDM and mTIDM peptides injected in PBS running buffer, 30 μl/min, 2.5 min association, 3 min dissociation; KD from the response at equilibrium versus peptide concentration; conditions: both partners purified
# T1 construct: TLR2, mouse, C-terminal TIR domain, amino acids 640-784; subcloned from the full-length construct pLenti-cMyc-DDK/Tlr2 (Origene); also called cMyc-tagged cTLR2 recombinant protein; TLR2 (in the SPR methods)
# T1 sequence (Q9QUN7 640-784): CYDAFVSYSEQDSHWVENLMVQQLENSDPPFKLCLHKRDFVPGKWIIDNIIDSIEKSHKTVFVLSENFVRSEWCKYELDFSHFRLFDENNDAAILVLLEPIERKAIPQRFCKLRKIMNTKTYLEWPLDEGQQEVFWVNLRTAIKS
molecule,measurement,setting,value
CC[C@H](C)[C@H](NC(=O)[C@H](CCCCN)NC(=O)[C@@H](NC(=O)[C@H](CCC(N)=O)NC(=O)[C@H](CCCNC(=N)N)NC(=O)[C@@H](N)CC(=O)O)[C@@H](C)CC)C(=O)N[C@@H](Cc1c[nH]c2ccccc12)C(=O)N[C@@H](Cc1ccccc1)C(=O)N[C@@H](CCC(N)=O)C(=O)N[C@@H](CC(N)=O)C(=O)N[C@@H](CCCNC(=N)N)C(=O)N[C@@H](CCCNC(=N)N)C(=O)N[C@@H](CCSC)C(=O)N[C@@H](CCCCN)C(=O)N[C@@H](Cc1c[nH]c2ccccc12)C(=O)N[C@@H](CCCCN)C(=O)N[C@@H](CCCCN)C(=O)N1CCC[C@H]1C(=O)NCC(=O)N[C@@H](C)C(=O)N[C@@H](Cc1c[nH]cn1)C(=O)N[C@@H](CCC(N)=O)C(=O)N[C@@H](CCCCN)C(=O)O [WT TIDM],"gross motor activity (movements, horizontal activity, rest time, stereotypy)",[1],neither the WT TIDM nor the mTIDM peptide modulated the gross motor activity of Tg mice
same,tissue level at time at 1 h,[2],23.3 ± 14.1 ng/g
CC[C@H](C)[C@H](NC(=O)[C@H](CCCCN)NC(=O)[C@@H](NC(=O)[C@H](CCC(N)=O)NC(=O)[C@H](CCCNC(=N)N)NC(=O)[C@@H](N)CC(=O)O)[C@@H](C)CC)C(=O)N[C@@H](Cc1c[nH]c2ccccc12)C(=O)N[C@@H](Cc1ccccc1)C(=O)N[C@@H](CCC(N)=O)C(=O)N[C@@H](CC(N)=O)C(=O)N[C@@H](CCCNC(=N)N)C(=O)N[C@@H](CCCNC(=N)N)C(=O)N[C@@H](CCSC)C(=O)N[C@@H](CCCCN)C(=O)N[C@@H](Cc1c[nH]c2ccccc12)C(=O)N[C@@H](CCCCN)C(=O)N[C@@H](CCCCN)C(=O)N1CCC[C@H]1C(=O)NCC(=O)N[C@@H](Cc1c[nH]c2ccccc12)C(=O)N[C@@H](Cc1c[nH]cn1)C(=O)N[C@@H](CCC(N)=O)C(=O)N[C@@H](CC(=O)O)C(=O)O [mTIDM],"gross motor activity (movements, horizontal activity, rest time, stereotypy)",[1],neither the WT TIDM nor the mTIDM peptide modulated the gross motor activity of Tg mice
DRQIKIWFQNRRMKWKKPGAHQK (Drosophila; the printed order is kept),Kd,[3],8 µM
B1,Kd,[3],19 µM
